pIC50: −log10 of the molar value. Read-outs that look alike come from different tables or passages of the source.
Key:
[1] = biological target: T1, αvβ3 receptor (αvβ3 from human A375 cells) (Homo sapiens, UniProt P05106+P06756); experiment: αvβ3 binding test (echistatin displacement, WGA SPA beads)
T1 construct: αvβ3 from human A375 cells was purified analogously to a procedure which was described by Wong et al; endogenous in cells; host or cells: human A375 cells; the receptor was purified from the cells and used detergent-solubilised (n-octyl-glucopyranoside)
Procedure: αvβ3 from human A375 cells was purified analogously to a procedure which was described by Wong et al. (Molecular Pharmacology, 50, 529–537 (1996)). In each case, 10 μl of αvβ3 (5 ng) in TBS pH 7.6, 2 mM CaCl2, 1 mM MgCl2, 1% n-octyl-glucopyranoside (Sigma); 10 μl of test substance in TBS pH 7.6, 0.1% DMSO and 45 μl of TBS pH 7.6, 2 mM CaCl2, 1 mM MgCl2, 1 mM MnCl2 were incubated at room temperature for 1 h. In each case, 25 μl of WGA SPA beads (Amersham, 4 mg/ml) and 10 μl of echistatin ([…], Amersham, chloramine-T labelled) were then added. After 16 hours at room temperature, the samples were measured in a scintillation measuring apparatus (Wallac 1450).

B16F10 = experiment: Growth inhibition test (MTT), cytotoxic action on tumour cell lines; type: cell-based; conditions: Mus musculus, B16-F10, 144 h, read-out: IC50 values of the cytotoxic action on tumour cell lines, B16F10
Procedure: (§1) The human large intestine cell lines SW 480 and HT29 (ATCC No. CCL 228 and HTB38), the human breast cell lines MDA-MB 231, MCF-7 and BT20 (ATCC No. HTB-, 26, 22 and 23) and the mouse melanoma cell line B16F 10 (CRL 6475) were grown to confluence in Roux dishes in RPMI 1640 medium with addition of 10% FCS. They were then trypsinized and taken up in RPMI plus 10% FCS to a cell count of 50,000 cells or, for B16F10, 20,000 cells per ml. 100 μl of cell suspension/well were added to a 96 microwell plate and incubated at 37° C. for 1 day in a CO2 incubator. A further 100 μl of RPMI medium and 1 μl of DMSO were then added with the test substances. The growth was checked after day 6. For this, 25 μl of MTT solution (3-(4,5-dimethylthiazol-2-yl)-2,5-diphenyltetrazolium bromide) was added to each well at a starting concentration of 5 mg/ml of H2O. The plate was incubated at 37° C. for 5 hours in a CO2 incubator. The medium was then aspirated and 100 μl of i-propanol/well were added. After shaking with 100 μl of H2O for 30 min, the extinction was measured at 595-nm using a Multiplate Reader (BIO-RAD 3550-UV).
(§2) The cytostatic action is indicated in Table 2 as an IC50 value, in each case for the individual cell lines.

BT20 = experiment: as above; type: cell-based; conditions: Homo sapiens, BT-20, 144 h, read-out: IC50 values of the cytotoxic action on tumour cell lines, BT20
Procedure: as §1, §2

MDA-MB 231 = experiment: as above; type: cell-based; conditions: Homo sapiens, MDA-MB-231, 144 h, read-out: IC50 values of the cytotoxic action on tumour cell lines, MDA-MB 231
Procedure: as §1, §2

HT 29 = experiment: as above; type: cell-based; conditions: Homo sapiens, HT-29, 144 h, read-out: IC50 values of the cytotoxic action on tumour cell lines, HT 29
Procedure: as §1, §2

SW480 = experiment: as above; type: cell-based; conditions: Homo sapiens, SW480, 144 h, read-out: IC50 values of the cytotoxic action on tumour cell lines, SW480
Procedure: as §1, §2

MCF7 = experiment: as above; type: cell-based; conditions: Homo sapiens, MCF7, 144 h, read-out: IC50 values of the cytotoxic action on tumour cell lines, MCF7
Procedure: as §1, §2

[2] = αvβ3 purified from human A375 cells, labelled echistatin, read-out: IC50 values of the binding to the αvβ3 receptor

T1 sequence (P06756 31-889 limits assumed): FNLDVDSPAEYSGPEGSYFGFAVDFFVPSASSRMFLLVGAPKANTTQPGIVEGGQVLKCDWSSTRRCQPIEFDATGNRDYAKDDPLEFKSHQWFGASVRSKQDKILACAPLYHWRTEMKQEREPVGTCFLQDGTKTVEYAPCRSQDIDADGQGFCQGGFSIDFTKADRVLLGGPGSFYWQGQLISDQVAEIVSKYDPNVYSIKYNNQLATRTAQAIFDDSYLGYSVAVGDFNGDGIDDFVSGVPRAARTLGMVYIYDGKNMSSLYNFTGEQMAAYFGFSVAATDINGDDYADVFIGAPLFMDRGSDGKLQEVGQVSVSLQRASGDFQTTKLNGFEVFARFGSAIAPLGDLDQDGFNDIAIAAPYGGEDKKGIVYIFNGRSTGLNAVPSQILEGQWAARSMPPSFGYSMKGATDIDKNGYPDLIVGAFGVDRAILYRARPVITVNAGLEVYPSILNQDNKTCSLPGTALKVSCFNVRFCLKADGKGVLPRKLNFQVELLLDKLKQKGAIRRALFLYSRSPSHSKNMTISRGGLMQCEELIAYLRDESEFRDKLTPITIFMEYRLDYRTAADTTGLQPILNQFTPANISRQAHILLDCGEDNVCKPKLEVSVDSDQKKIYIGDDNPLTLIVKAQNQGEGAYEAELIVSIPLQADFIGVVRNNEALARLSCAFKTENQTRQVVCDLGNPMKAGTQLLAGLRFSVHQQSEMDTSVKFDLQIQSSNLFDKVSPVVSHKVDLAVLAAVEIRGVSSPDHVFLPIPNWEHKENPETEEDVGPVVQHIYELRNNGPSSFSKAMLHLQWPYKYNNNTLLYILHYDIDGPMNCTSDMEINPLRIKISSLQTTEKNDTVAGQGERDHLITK
T1 sequence (P06756 891-1048 partner limits assumed): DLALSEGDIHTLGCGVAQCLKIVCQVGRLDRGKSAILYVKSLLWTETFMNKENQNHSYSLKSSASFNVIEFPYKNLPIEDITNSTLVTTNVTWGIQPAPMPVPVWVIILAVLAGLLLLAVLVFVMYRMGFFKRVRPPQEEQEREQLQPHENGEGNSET
T1 sequence (P05106 27-788): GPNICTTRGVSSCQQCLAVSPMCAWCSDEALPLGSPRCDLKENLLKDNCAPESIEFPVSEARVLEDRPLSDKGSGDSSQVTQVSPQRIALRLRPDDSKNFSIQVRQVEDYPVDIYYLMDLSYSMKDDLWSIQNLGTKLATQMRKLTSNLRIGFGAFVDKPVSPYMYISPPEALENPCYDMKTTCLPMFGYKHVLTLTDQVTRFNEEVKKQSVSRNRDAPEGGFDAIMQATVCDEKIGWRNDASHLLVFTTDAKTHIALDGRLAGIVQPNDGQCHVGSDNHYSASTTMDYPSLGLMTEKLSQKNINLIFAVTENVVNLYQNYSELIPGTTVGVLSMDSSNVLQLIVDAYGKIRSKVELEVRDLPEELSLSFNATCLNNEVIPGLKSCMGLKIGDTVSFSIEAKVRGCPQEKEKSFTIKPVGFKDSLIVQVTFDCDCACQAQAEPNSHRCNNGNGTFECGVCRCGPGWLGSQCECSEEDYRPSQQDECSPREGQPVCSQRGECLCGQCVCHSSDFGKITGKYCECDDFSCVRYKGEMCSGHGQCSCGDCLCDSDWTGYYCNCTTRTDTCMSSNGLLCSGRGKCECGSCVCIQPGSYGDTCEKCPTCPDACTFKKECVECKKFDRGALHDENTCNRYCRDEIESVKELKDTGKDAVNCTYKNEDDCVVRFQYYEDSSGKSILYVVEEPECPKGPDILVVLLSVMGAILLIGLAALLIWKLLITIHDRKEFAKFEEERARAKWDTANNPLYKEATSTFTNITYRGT

Row | SMILES | pIC50 [1, 2] | pIC50 (B16F10) | pIC50 (BT20) | pIC50 (MDA-MB 231) | pIC50 (HT 29) | pIC50 (SW480) | pIC50 (MCF7) | pIC50 [1]
1 | CCC1(OC(=O)[C@@H](NC(=O)[C@H](Cc2c[nH]cn2)NC(=O)Nc2cccc(-c3ccc(S(=O)(=O)NC(CC(=O)O)c4ccccc4)cc3)c2)C(C)C)C(=O)OCc2c1cc1n(c2=O)Cc2cc3ccccc3nc2-1 (stereo partly shown) [Example 2.11] | 6.71 | 6.10 | 6.40 | 6.22 | 6.40 | 6.22 | 6.30 | –
2 | CC[C@@]1(OC(=O)C(NC(=O)C(Cc2cnc[nH]2)NC(=S)Nc2cccc(-c3ccc(C[C@H](NS(=O)(=O)CC45CCC(CC4=O)C5(C)C)C(=O)O)cc3)c2)C(C)C)C(=O)OCc2c1cc1n(c2=O)Cc2cc3ccccc3nc2-1 (stereo partly shown) [Example 2.4] | 6.96 | 6.30 | 5.82 | 6.40 | 6.52 | 6.40 | 6.10 | –
3 | CC[C@@]1(OC(=O)[C@@H](NC(=O)[C@H](CCCCN)NC(=S)Nc2cccc(C(=O)NCC(=O)NC(CC(=O)O)c3ccccc3)c2)C(C)C)C(=O)OCc2c1cc1n(c2=O)Cc2cc3ccccc3nc2-1 (stereo partly shown) [Example 2.1] | 5.84 | 6.40 | 7.00 | 7.22 | 7.05 | 6.82 | 7.15 | –
4 | CCCNC(=O)Nc1cccc(-c2ccc(CC(NC(=O)N[C@H](C(=O)O[C@]3(CC)C(=O)OCc4c3cc3n(c4=O)Cc4cc5ccccc5nc4-3)C(C)C)C(=O)O)cc2)c1 (stereo partly shown) [Example 3.14] | 7.68 | 6.70 | 7.00 | 6.82 | 7.00 | 6.82 | 7.10 | –
5 | CC[C@@]1(OC(=O)[C@@H](NC(=O)[C@H](Cc2cnc[nH]2)NC(=S)Nc2ccc(CC(NS(=O)(=O)c3cccc(-c4cccc(NC(=O)Nc5nc6ccccc6[nH]5)c4)c3)C(=O)O)cc2)C(C)C)C(=O)OCc2c1cc1n(c2=O)Cc2cc3ccccc3nc2-1 (stereo partly shown) [Example 3.9] | – | 6.00 | 6.30 | 7.22 | 7.22 | 6.40 | 6.82 | 6.66
6 | CCCNC(=O)Nc1cccc(-c2ccc(CC(NS(=O)(=O)c3cccc(NC(=S)N[C@@H](Cc4c[nH]cn4)C(=O)N[C@H](C(=O)O[C@]4(CC)C(=O)OCc5c4cc4n(c5=O)Cc5cc6ccccc6nc5-4)C(C)C)c3)C(=O)O)cc2)c1 (stereo partly shown) [Example 3.10] | 6.81 | 6.10 | 6.40 | 6.70 | 6.46 | 6.52 | 6.70 | –
7 | CC[C@@]1(OC(=O)[C@@H](NC(=O)CNC(=O)CCCC(=O)NC(CC(=O)O)c2cccc(NS(=O)(=O)c3cccc(NC(=N)N)c3)c2)C(C)C)C(=O)OCc2c1cc1n(c2=O)Cc2cc3ccccc3nc2-1 (stereo partly shown) [Example 3.19] | 7.32 | 5.22 | 5.40 | 5.70 | 6.30 | 5.82 | 5.30 | –
8 | CC[C@@]1(OC(=O)[C@@H](NC(=O)[C@H](CCC(=O)O)NC(=S)Nc2cccc(C(=O)NCC(=O)NC(CC(=O)O)c3ccccc3)c2)C(C)C)C(=O)OCc2c1cc1n(c2=O)Cc2cc3ccccc3nc2-1 (stereo partly shown) [Example 2.2] | 5.82 | – | 6.40 | 6.52 | 6.52 | 6.30 | 6.52 | –
9 | CC[C@@]1(OC(=O)[C@@H](NC(=O)Nc2cccc(-c3cccc(S(=O)(=O)NC(CC(=O)O)c4ccccc4)c3)c2)C(C)C)C(=O)OCc2c1cc1n(c2=O)Cc2cc3ccccc3nc2-1 (stereo partly shown) [Example 2.13] | 7.01 | 7.70 | 8.30 | 7.70 | 7.82 | 7.82 | 8.00 | –
10 | CC[C@@]1(OC(=O)[C@@H](NC(=O)[C@H](Cc2c[nH]cn2)NC(=S)Nc2cccc(S(=O)(=O)NC(CC(=O)O)c3cccc(NS(=O)(=O)c4cccc(NC(=N)N)c4)c3)c2)C(C)C)C(=O)OCc2c1cc1n(c2=O)Cc2cc3ccccc3nc2-1 (stereo partly shown) [Example 3.1] | – | 6.00 | 6.00 | 6.30 | 6.40 | 6.00 | 6.10 | 6.83
11 | CCC1(OC(=O)[C@@H](NC(=O)Nc2cccc(-c3ccc(S(=O)(=O)NC(CC(=O)O)c4ccccc4)cc3)c2)C(C)C)C(=O)OCc2c1cc1n(c2=O)Cc2cc3ccccc3nc2-1 (stereo partly shown) [Example 2.12] | 6.90 | 7.70 | 8.10 | 8.00 | 8.05 | 7.70 | 8.00 | –
12 | CCCNC(=O)Nc1cccc(-c2ccc(CC(NC(=S)Nc3cccc4nc5c(cc34)Cn3c-5cc4c(c3=O)COC(=O)[C@]4(O)CC)C(=O)O)cc2)c1 (stereo partly shown) [Example 3.15] | 7.21 | 5.22 | 5.70 | 6.70 | 6.70 | 6.70 | 6.52 | –
13 | CC[C@@]1(OC(=O)[C@@H](NC(=O)Nc2cccc(-c3ccc(C[C@H](NS(=O)(=O)CC45CCC(CC4=O)C5(C)C)C(=O)O)cc3)c2)C(C)C)C(=O)OCc2c1cc1n(c2=O)Cc2cc3ccccc3nc2-1 (stereo partly shown) [Example 2.8] | 7.08 | 6.70 | 8.05 | 7.82 | 8.00 | 7.70 | 8.00 | –
14 | CC[C@@]1(OC(=O)[C@@H](NC(=O)[C@H](Cc2c[nH]cn2)NC(=S)Nc2ccc(C(=O)NC(CC(=O)O)c3cccc(NS(=O)(=O)c4cccc(NC(=N)N)c4)c3)cc2)C(C)C)C(=O)OCc2c1cc1n(c2=O)Cc2cc3ccccc3nc2-1 (stereo partly shown) [Example 3.3] | – | – | 6.82 | 7.00 | 7.05 | 6.52 | 7.00 | 7.35
15 | CC[C@@]1(OC(=O)C(NC(=O)C(CCCCN)NC(=S)Nc2cccc(-c3ccc(C[C@H](NS(=O)(=O)CC45CCC(CC4=O)C5(C)C)C(=O)O)cc3)c2)C(C)C)C(=O)OCc2c1cc1n(c2=O)Cc2cc3ccccc3nc2-1 (stereo partly shown) [Example 2.5] | 6.72 | 6.40 | 6.40 | 6.52 | 6.52 | 6.70 | 6.52 | –
16 | CC[C@@]1(OC(=O)[C@@H](NC(=O)[C@H](CCCCNC(=O)CC(NC(=O)CNC(=O)c2cccc(NC(=N)N)c2)c2ccccc2)NC(=S)Nc2ccccc2)C(C)C)C(=O)OCc2c1cc1n(c2=O)Cc2cc3ccccc3nc2-1 (stereo partly shown) [Example 1.1] | 6.06 | – | 6.82 | 7.00 | 6.92 | 6.70 | 7.05 | –
17 | CC[C@@]1(OC(=O)[C@@H](NC(=O)[C@H](Cc2c[nH]cn2)NC(=S)Nc2cccc(S(=O)(=O)Nc3cccc(C(CC(=O)O)NS(=O)(=O)c4ccccc4)c3)c2)C(C)C)C(=O)OCc2c1cc1n(c2=O)Cc2cc3ccccc3nc2-1 (stereo partly shown) [Example 2.3] | – | – | 7.10 | 7.70 | 7.15 | 6.92 | 7.22 | 6.16
18 | CC[C@@]1(O)C(=O)OCc2c1cc1n(c2=O)Cc2cc3c(NC(=S)NC(CC(=O)O)c4cccc(NS(=O)(=O)c5cccc(NC(=N)N)c5)c4)cccc3nc2-1 (stereo partly shown) [Example 3.17] | 7.18 | 5.30 | 5.30 | 5.52 | 6.22 | 6.10 | – | –
